Source: ChEMBL document CHEMBL5579806, “Re-exploration of tetrahydro-β-carboline scaffold: Discovery of selective histone deacetylase 6 inhibitors with neurite outgrowth-promoting and neuroprotective activities” (Bioorg Med Chem Lett, 2024)
Activity calls are given as the source filed them. The rule behind the calls is not given here.

Assays:
[1] = system: PC-12; assay: Neuroprotective activity against H2O2-induced oxidative stress in rat PC-12 cells assessed as increase in cell viability at 5 uM incubated for 24 hrs; type: functional, cell-based
[2] = target: T1, Protein deacetylase HDAC6 (Homo sapiens, UniProt Q9UBN7); assay: Inhibition of human HDAC6 using RHKKAc as substrate by fluorescence based assay
T1 sequence (Q9UBN7 whole entry): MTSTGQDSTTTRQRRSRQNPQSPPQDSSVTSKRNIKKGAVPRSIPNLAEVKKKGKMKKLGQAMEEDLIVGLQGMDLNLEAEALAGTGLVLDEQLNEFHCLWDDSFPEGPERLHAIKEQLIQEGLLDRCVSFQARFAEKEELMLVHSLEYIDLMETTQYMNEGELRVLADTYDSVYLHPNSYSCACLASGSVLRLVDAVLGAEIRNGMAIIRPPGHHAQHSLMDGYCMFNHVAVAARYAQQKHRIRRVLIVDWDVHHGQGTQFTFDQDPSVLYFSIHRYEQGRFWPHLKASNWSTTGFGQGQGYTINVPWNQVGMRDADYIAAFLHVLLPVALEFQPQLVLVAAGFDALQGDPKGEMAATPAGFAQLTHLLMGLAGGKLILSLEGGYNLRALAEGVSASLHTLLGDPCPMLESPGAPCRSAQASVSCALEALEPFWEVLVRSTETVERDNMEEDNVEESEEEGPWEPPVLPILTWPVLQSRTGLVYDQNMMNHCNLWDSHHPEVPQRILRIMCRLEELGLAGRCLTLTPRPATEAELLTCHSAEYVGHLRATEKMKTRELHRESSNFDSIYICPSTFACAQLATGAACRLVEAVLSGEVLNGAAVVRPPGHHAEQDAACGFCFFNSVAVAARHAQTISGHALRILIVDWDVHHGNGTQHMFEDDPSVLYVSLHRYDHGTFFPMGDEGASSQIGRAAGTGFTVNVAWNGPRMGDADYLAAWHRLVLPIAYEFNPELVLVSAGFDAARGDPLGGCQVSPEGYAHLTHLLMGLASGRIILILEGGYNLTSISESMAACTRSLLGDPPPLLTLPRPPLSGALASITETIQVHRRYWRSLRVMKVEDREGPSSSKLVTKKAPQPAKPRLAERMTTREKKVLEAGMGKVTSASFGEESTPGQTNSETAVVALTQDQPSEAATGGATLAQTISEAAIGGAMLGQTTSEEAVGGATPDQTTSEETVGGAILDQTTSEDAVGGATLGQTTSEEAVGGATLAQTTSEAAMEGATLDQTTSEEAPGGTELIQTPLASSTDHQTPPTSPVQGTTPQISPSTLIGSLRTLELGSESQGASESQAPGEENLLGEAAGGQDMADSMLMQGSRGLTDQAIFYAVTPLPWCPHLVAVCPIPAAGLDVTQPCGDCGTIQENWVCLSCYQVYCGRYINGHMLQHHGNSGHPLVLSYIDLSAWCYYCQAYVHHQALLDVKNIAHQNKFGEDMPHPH

[3] = species: Homo sapiens; assay: Selectivity index, ratio of IC50 for inhibition of human HDAC1 to IC50 for inhibition of human HDAC6
[4] = target: Histone deacetylase 1 (Homo sapiens, UniProt Q13547); assay: Inhibition of human HDAC1 using RHKKAc as substrate by fluorescence based assay
Sequence of Histone deacetylase 1 (Q13547 whole entry): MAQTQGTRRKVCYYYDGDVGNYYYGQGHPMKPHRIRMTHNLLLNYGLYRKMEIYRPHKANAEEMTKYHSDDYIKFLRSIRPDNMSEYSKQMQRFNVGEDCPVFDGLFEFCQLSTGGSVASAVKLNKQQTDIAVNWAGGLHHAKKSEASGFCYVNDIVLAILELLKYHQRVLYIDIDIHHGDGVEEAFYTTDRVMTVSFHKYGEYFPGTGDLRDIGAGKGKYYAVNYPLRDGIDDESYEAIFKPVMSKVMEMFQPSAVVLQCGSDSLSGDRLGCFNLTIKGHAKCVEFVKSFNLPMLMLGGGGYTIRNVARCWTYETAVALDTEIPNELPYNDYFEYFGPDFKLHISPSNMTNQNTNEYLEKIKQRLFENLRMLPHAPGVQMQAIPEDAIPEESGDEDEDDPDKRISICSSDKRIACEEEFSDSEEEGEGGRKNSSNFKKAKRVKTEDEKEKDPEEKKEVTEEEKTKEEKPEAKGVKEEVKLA

[5] = system: PC-12; assay: Induction of neurite outgrowth in NGF-induced rat PC-12 cells assessed as increase in percentage of neurite bearing cells at 3 uM relative to control; type: functional
[6] = Neurotoxicity in rat PC-12 cells at 1 to 10 uM; type: toxicity, cell-based; conditions: pc-12, 10 µM, dose 1-10 µM
[7] = system: PC-12; assay: Neuroprotective activity against H2O2-induced oxidative stress in rat PC-12 cells assessed as cell viability at 5 uM incubated for 24 hrs (reference value: 62.5 %); type: functional; conditions: read-out: Activity
[8] = system: PC-12; assay: Induction of neurite outgrowth in NGF-induced rat PC-12 cells; type: functional, cell-based; conditions: dose 1-10 µM
[9] = target: T2, Histone deacetylase 8 (Homo sapiens, UniProt Q9BY41); assay: Inhibition of human HDAC8 using RHK(Ac)-K(Ac) as substrate by fluorescence based assay
T2 sequence (Q9BY41 whole entry): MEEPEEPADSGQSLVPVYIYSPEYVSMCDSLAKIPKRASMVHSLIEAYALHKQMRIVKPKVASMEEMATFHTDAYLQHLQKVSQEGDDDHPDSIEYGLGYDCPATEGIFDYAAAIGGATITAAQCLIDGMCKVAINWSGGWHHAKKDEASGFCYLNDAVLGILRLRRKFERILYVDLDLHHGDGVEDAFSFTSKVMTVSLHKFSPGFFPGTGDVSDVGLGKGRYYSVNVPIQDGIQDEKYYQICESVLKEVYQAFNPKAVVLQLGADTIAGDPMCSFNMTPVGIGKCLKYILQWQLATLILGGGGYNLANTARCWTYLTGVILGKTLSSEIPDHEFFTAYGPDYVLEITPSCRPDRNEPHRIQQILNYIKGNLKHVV

[10] = target: Histone deacetylase 3/Nuclear receptor corepressor 2 (HDAC3/NCoR2) (Homo sapiens, UniProt O15379); assay: Inhibition of human HDAC3/NCOR2 using RHKKAc as substrate by fluorescence based assay; type: protein-complex assay
Sequence of Histone deacetylase 3/Nuclear receptor corepressor 2 (HDAC3/NCoR2) (O15379 whole entry): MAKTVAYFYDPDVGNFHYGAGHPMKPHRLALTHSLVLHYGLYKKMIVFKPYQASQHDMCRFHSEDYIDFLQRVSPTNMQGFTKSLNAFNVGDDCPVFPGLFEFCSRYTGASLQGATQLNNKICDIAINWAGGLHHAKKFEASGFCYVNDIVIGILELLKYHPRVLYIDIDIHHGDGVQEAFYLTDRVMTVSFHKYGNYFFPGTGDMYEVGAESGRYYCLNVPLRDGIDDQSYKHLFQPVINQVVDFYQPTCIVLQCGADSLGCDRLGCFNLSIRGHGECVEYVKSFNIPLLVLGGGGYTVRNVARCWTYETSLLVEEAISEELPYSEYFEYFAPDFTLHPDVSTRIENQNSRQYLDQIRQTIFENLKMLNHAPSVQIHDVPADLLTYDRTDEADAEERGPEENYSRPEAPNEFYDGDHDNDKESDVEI
Sequence of Histone deacetylase 3/Nuclear receptor corepressor 2 (HDAC3/NCoR2) (Q9Y618 whole entry, further chain): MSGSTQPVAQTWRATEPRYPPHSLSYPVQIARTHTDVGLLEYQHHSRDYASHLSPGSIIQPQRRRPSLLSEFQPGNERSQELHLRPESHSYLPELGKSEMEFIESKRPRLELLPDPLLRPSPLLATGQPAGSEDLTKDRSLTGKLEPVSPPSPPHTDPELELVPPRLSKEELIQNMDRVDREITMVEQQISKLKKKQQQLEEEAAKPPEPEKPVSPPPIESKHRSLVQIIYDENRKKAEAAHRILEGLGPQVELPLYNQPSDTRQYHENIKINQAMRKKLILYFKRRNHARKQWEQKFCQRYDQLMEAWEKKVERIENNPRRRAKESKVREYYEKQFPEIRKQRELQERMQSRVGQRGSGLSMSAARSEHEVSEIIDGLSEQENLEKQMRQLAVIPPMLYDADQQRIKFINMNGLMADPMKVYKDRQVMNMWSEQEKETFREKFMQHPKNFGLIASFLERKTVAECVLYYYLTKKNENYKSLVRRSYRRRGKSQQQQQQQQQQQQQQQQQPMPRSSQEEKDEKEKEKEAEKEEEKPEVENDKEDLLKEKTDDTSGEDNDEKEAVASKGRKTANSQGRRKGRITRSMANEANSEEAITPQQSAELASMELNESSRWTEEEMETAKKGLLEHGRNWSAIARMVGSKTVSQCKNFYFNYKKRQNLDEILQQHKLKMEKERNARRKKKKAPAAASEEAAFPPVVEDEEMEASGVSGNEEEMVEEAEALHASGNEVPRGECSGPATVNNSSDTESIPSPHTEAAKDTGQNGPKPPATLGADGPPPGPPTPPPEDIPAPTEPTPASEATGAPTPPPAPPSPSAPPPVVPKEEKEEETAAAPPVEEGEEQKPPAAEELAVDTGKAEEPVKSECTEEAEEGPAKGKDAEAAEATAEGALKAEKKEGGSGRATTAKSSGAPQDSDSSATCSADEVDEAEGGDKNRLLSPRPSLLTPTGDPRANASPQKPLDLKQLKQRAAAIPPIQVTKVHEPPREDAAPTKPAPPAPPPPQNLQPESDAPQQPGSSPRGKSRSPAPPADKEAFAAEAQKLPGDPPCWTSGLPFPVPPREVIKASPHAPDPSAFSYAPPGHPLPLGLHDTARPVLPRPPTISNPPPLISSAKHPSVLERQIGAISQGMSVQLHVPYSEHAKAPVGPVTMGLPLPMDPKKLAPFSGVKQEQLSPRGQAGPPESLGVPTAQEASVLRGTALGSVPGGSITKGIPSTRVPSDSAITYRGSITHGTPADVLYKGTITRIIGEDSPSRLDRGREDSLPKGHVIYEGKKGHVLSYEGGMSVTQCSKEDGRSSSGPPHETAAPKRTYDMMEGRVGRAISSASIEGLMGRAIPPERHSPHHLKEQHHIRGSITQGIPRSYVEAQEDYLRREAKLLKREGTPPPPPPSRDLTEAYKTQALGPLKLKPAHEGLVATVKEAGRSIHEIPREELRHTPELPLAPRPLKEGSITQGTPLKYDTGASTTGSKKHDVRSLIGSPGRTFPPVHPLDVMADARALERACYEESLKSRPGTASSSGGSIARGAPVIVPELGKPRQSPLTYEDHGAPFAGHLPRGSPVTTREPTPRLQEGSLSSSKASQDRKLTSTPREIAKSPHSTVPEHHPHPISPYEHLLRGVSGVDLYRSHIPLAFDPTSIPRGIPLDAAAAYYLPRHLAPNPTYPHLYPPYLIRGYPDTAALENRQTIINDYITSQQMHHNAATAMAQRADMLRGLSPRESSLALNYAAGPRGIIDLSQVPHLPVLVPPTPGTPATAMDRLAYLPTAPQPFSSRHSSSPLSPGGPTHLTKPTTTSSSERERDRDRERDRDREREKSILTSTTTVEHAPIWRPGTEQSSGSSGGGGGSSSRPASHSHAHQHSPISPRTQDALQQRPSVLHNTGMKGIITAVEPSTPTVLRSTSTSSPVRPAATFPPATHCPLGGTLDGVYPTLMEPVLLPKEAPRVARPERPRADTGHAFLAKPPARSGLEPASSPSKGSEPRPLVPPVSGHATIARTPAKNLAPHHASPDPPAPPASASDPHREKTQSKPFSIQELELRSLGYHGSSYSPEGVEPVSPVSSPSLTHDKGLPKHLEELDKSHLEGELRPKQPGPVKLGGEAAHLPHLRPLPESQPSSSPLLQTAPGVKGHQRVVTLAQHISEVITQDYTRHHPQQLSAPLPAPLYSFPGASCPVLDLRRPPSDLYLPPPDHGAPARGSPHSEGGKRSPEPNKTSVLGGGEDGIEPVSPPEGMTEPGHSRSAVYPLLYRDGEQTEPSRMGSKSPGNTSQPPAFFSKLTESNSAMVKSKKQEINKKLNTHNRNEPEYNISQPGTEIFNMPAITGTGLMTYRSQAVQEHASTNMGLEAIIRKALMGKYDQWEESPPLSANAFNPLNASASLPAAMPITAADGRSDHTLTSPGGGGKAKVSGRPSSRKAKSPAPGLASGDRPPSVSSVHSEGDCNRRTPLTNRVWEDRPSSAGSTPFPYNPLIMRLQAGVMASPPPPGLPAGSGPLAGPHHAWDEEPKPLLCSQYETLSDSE

[11] = system: PC-12; assay: Inhibition of HDAC6 in rat PC-12 cells assessed as increase in alpha-tubulin acetylation incubated for 24 hrs by Western blot analysis; type: cell-based; conditions: dose 0.1-1 µM
[12] = target: Histone deacetylase 5 (Homo sapiens, UniProt Q9UQL6); assay: Inhibition of human HDAC5 using Boc-Lys(trifluoroacetyl)-AMC as substrate by fluorescence based assay
Sequence of Histone deacetylase 5 (Q9UQL6 whole entry): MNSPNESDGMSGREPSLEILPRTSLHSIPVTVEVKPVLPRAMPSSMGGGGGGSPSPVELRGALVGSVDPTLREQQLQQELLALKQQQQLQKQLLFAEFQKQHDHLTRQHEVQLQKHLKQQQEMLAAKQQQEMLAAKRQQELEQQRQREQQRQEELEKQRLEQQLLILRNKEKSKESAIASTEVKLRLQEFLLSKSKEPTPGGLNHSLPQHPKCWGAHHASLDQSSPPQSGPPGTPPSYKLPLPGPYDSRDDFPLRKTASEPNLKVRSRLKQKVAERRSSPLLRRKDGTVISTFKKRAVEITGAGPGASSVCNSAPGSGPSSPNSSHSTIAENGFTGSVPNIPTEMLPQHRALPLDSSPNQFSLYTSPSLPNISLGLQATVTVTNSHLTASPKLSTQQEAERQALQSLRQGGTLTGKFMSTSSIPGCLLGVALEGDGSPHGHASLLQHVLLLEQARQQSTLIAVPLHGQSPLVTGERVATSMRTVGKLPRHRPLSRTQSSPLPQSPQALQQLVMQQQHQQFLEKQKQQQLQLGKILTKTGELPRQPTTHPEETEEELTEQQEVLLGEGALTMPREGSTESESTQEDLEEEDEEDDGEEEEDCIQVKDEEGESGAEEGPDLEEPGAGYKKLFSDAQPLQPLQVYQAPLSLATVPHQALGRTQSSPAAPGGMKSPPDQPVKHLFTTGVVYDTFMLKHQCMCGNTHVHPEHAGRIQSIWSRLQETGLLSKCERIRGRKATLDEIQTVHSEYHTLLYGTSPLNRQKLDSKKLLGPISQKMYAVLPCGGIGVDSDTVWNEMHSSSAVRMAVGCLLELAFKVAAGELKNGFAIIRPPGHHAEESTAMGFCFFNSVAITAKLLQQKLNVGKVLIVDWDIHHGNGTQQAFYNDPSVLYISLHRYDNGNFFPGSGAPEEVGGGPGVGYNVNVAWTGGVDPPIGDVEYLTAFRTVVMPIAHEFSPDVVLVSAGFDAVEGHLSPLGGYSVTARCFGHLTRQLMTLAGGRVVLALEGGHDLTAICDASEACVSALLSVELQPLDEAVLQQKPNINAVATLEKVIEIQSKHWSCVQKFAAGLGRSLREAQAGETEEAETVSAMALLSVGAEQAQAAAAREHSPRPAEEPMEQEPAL

[13] = target: Histone deacetylase 2 (Homo sapiens, UniProt Q92769); assay: Inhibition of human HDAC2 using RHKKAc as substrate by fluorescence based assay
Sequence of Histone deacetylase 2 (Q92769 whole entry): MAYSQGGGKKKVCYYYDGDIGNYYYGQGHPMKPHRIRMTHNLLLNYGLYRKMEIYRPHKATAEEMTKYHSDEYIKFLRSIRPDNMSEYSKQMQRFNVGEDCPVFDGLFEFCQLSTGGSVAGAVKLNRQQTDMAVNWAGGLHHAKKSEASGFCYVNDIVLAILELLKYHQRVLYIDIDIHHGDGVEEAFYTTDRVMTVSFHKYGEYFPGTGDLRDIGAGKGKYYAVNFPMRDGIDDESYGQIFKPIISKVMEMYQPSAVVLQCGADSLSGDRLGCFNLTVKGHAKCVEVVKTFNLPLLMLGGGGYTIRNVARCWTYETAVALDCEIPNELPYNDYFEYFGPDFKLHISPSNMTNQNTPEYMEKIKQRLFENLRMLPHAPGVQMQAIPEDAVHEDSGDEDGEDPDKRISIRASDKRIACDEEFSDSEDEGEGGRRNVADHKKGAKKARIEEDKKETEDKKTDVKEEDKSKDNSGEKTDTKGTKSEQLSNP

| IC50 [2] [nM] | Ratio IC50 [3] | IC50 [4] [nM] | IC50 [9] [µM] | IC50 [10] [nM] | IC50 [12] [µM] | IC50 [13] [nM] | SMILES | Activity [1] | Activity [5] [%] | Activity [6] | viability at 5 µM [7] [%] | Activity [8] | inhibition [11] |
| --- | --- | --- | --- | --- | --- | --- | --- | --- | --- | --- | --- | --- | --- |
| 3.25 | 36 | 118 | – | – | – | – | O=C(NO)c1ccc(CNC(=O)[C@@H]2Cc3c([nH]c4ccccc34)[C@@H](C3CC3)N2)cc1 | inactive | 23.3 | – | – | – | – |
| 5.3 | 140 | 742 | – | – | – | – | O=C(NO)c1ccc(CNC(=O)[C@@H]2Cc3c([nH]c4ccccc34)[C@@H](c3ccccc3)N2)cc1 | inactive | 23.3 | – | – | – | – |
| – | – | 390 | – | – | – | – | COc1ccc([C@H]2N[C@H](C(=O)NCc3ccc(C(=O)NO)cc3)Cc3c2[nH]c2ccccc32)cc1OC | inactive | 23.3 | – | – | – | – |
| 2 | 108 | 216 | – | – | – | – | O=C(NO)c1ccc(CNC(=O)[C@@H]2Cc3c([nH]c4ccccc34)[C@@H](c3ccc4c(c3)OCO4)N2)cc1 | inactive | 46.4 | Toxic | – | – | – |
| 11.2 | 155 | 1740 | – | – | – | – | O=C(NO)c1ccc(CNC(=O)[C@@H]2Cc3c([nH]c4ccccc34)[C@@H](C3CC3)N2Cc2ccc(Cl)cc2)cc1 | – | 23.3 | – | 92.5 | Dose-Dependent Effect | – |
| – | – | 1280 | > 10 | 1660 | > 10 | 1440 | O=C(NO)c1ccc(CNC(=O)[C@@H]2Cc3c([nH]c4ccccc34)[C@@H](c3ccc(Cl)cc3)N2CC2CC2)cc1 | – | 47.1 | – | 99.6 | Dose-Dependent Effect | Dose-Dependent Effect |
| – | – | – | – | – | – | – | COc1ccc(CN2[C@H](C(=O)NCc3ccc(C(=O)NO)cc3)Cc3c([nH]c4ccccc34)[C@H]2C2CC2)cc1 | – | 23.3 | – | > 85 | Dose-Dependent Effect | – |
| 5.61 | 137 | 770 | – | – | – | – | O=C(NO)c1ccc(CNC(=O)[C@@H]2Cc3c([nH]c4ccccc34)[C@@H](c3ccc(Cl)cc3)N2)cc1 | inactive | 23.3 | – | – | – | – |
| 4.54 | 45 | 204 | – | – | – | – | O=C(NO)c1ccc(CNC(=O)[C@@H]2Cc3c([nH]c4ccccc34)[C@@H](C3CCCC3)N2)cc1 | inactive | 23.3 | – | – | – | – |
| 34.2 | – | > 10000 | – | – | – | – | COc1ccc(CN2[C@H](C)c3[nH]c4ccccc4c3C[C@H]2C(=O)NCc2ccc(C(=O)NO)cc2)cc1 | – | – | – | – | – | – |
| 12.7 | 134 | 1700 | – | – | – | – | O=C(NO)c1ccc(CNC(=O)[C@@H]2Cc3c([nH]c4ccccc34)[C@@H](C3CC3)N2Cc2ccccc2)cc1 | – | 23.3 | – | > 85 | Dose-Dependent Effect | – |
| – | – | – | – | – | – | – | CN1CCc2c(c3ccccc3n2Cc2ccc(C(=O)NO)cc2)C1 [TUBASTATIN A] | – | 26.7 | – | 77.6 | – | – |
